Legend:
[1] = target: Activin receptor type-2B (Homo sapiens) (UniProt Q13705); test: Inhibition of T7 bacteriophage fused human ACVR2B at 10 uM by KINOMEscan analysis relative to control
[2] = target: NUAK family SNF1-like kinase 1 (Homo sapiens) (UniProt O60285); test: Inhibition of T7 bacteriophage fused human ARK5 at 10 uM by KINOMEscan analysis relative to control
[3] = target: Aurora kinase A (Homo sapiens) (UniProt O14965); test: Inhibition of T7 bacteriophage fused human AURKA at 10 uM by KINOMEscan analysis relative to control
[4] = target: Cytoplasmic tyrosine-protein kinase BMX (Homo sapiens) (UniProt P51813); test: Inhibition of T7 bacteriophage fused human BMX at 10 uM by KINOMEscan analysis relative to control
[5] = target: Tyrosine-protein kinase BTK (Homo sapiens) (UniProt Q06187); test: Inhibition of T7 bacteriophage fused human BTK at 10 uM by KINOMEscan analysis relative to control
[6] = target: Cyclin-dependent kinase-like 2 (Homo sapiens) (UniProt Q92772); test: Inhibition of T7 bacteriophage fused human CDKL2 at 10 uM by KINOMEscan analysis relative to control
[7] = target: Cyclin-dependent kinase-like 5 (Homo sapiens) (UniProt O76039); test: Inhibition of T7 bacteriophage fused human CDKL5 at 10 uM by KINOMEscan analysis relative to control
[8] = target: Dual specificity protein kinase CLK3 (Homo sapiens) (UniProt P49761); test: Inhibition of T7 bacteriophage fused human CLK3 at 10 uM by KINOMEscan analysis relative to control
[9] = test system: Epidermal growth factor receptor (Homo sapiens), P00533 [L858R,T790M]; test: Inhibition of T7 bacteriophage fused human EGFR L858R/T790M mutant at 10 uM by KINOMEscan analysis relative to control
[10] = test system: Receptor-type tyrosine-protein kinase FLT3 (Homo sapiens), P36888 [D835H]; test: Inhibition of T7 bacteriophage fused human FLT3 D835H mutant at 10 uM by KINOMEscan analysis relative to control
[11] = target: Mitogen-activated protein kinase kinase kinase kinase 1 (Homo sapiens) (UniProt Q92918); test: Inhibition of T7 bacteriophage fused human HPK1 at 10 uM by KINOMEscan analysis relative to control
[12] = test system: Mast/stem cell growth factor receptor Kit (Homo sapiens), P10721 [V559D,V654A]; test: Inhibition of T7 bacteriophage fused human KIT V559D/V654A mutant at 10 uM by KINOMEscan analysis relative to control
[13] = target: LIM domain kinase 2 (Homo sapiens) (UniProt P53671); test: Inhibition of T7 bacteriophage fused human LIMK2 at 10 uM by KINOMEscan analysis relative to control
[14] = target: Dual specificity mitogen-activated protein kinase kinase 7 (Homo sapiens) (UniProt O14733); test: Inhibition of T7 bacteriophage fused human MKK7 at 10 uM by KINOMEscan analysis relative to control
[15] = target: Phosphatidylinositol 4,5-bisphosphate 3-kinase catalytic subunit delta isoform (Homo sapiens) (UniProt O00329); test: Inhibition of T7 bacteriophage fused human PIK3CD at 10 uM by KINOMEscan analysis relative to control
[16] = target: Serine/threonine-protein kinase RIO2 (Homo sapiens) (UniProt Q9BVS4); test: Inhibition of T7 bacteriophage fused human RIOK2 at 10 uM by KINOMEscan analysis relative to control
[17] = target: Serine/threonine-protein kinase SBK1 (Homo sapiens) (UniProt Q52WX2); test: Inhibition of T7 bacteriophage fused human SBK1 at 10 uM by KINOMEscan analysis relative to control
[18] = target: Uncharacterized serine/threonine-protein kinase SBK3 (Homo sapiens) (UniProt P0C264); test: Inhibition of T7 bacteriophage fused human SgK110 at 10 uM by KINOMEscan analysis relative to control
[19] = target: Tyrosine-protein kinase ZAP-70 (Homo sapiens) (UniProt P43403); test: Inhibition of T7 bacteriophage fused human ZAP70 at 10 uM by KINOMEscan analysis relative to control
[20] = target: Epidermal growth factor receptor (Homo sapiens) (UniProt P00533); test: Inhibition of T7 bacteriophage fused human EGFR at 10 uM by KINOMEscan analysis relative to control; values are per cent of control
[21] = target: Dual specificity mitogen-activated protein kinase kinase 6 (Homo sapiens) (UniProt P52564); test: Inhibition of T7 bacteriophage fused human MEK6 at 10 uM by KINOMEscan analysis relative to control; values are per cent of control
[22] = target: Muscle, skeletal receptor tyrosine-protein kinase (Homo sapiens) (UniProt O15146); test: Inhibition of T7 bacteriophage fused human MUSK at 10 uM by KINOMEscan analysis relative to control; values are per cent of control
[23] = target: Myosin light chain kinase, smooth muscle (Homo sapiens) (UniProt Q15746); test: Inhibition of T7 bacteriophage fused human MYLK at 10 uM by KINOMEscan analysis relative to control; values are per cent of control
[24] = target: Macrophage colony-stimulating factor 1 receptor (Homo sapiens) (UniProt P07333); test: Inhibition of T7 bacteriophage fused human CSF1R at 10 uM by KINOMEscan analysis relative to control; values are per cent of control
[25] = target: Dual specificity tyrosine-phosphorylation-regulated kinase 2 (Homo sapiens) (UniProt Q92630); test: Inhibition of T7 bacteriophage fused human DYRK2 at 10 uM by KINOMEscan analysis relative to control; values are per cent of control
[26] = target: Ephrin type-A receptor 2 (Homo sapiens) (UniProt P29317); test: Inhibition of T7 bacteriophage fused human EPHA2 at 10 uM by KINOMEscan analysis relative to control; values are per cent of control
[27] = target: Fibroblast growth factor receptor 1 (Homo sapiens) (UniProt P11362); test: Inhibition of T7 bacteriophage fused human FGFR1 at 10 uM by KINOMEscan analysis relative to control; values are per cent of control
[28] = target: Mitogen-activated protein kinase kinase kinase 15 (Homo sapiens) (UniProt Q6ZN16); test: Inhibition of T7 bacteriophage fused human MAP3K15 at 10 uM by KINOMEscan analysis relative to control; values are per cent of control
[29] = test system: Epidermal growth factor receptor (Homo sapiens), P00533 [UNDEFINED MUTATION]; test: Inhibition of T7 bacteriophage fused human EGFR E746/A750del mutant at 10 uM by KINOMEscan analysis relative to control; values are per cent of control

Mitogen-activated protein kinase kinase kinase 15 (Homo sapiens), sequence (Q6ZN16 whole entry, the tested form may be a part): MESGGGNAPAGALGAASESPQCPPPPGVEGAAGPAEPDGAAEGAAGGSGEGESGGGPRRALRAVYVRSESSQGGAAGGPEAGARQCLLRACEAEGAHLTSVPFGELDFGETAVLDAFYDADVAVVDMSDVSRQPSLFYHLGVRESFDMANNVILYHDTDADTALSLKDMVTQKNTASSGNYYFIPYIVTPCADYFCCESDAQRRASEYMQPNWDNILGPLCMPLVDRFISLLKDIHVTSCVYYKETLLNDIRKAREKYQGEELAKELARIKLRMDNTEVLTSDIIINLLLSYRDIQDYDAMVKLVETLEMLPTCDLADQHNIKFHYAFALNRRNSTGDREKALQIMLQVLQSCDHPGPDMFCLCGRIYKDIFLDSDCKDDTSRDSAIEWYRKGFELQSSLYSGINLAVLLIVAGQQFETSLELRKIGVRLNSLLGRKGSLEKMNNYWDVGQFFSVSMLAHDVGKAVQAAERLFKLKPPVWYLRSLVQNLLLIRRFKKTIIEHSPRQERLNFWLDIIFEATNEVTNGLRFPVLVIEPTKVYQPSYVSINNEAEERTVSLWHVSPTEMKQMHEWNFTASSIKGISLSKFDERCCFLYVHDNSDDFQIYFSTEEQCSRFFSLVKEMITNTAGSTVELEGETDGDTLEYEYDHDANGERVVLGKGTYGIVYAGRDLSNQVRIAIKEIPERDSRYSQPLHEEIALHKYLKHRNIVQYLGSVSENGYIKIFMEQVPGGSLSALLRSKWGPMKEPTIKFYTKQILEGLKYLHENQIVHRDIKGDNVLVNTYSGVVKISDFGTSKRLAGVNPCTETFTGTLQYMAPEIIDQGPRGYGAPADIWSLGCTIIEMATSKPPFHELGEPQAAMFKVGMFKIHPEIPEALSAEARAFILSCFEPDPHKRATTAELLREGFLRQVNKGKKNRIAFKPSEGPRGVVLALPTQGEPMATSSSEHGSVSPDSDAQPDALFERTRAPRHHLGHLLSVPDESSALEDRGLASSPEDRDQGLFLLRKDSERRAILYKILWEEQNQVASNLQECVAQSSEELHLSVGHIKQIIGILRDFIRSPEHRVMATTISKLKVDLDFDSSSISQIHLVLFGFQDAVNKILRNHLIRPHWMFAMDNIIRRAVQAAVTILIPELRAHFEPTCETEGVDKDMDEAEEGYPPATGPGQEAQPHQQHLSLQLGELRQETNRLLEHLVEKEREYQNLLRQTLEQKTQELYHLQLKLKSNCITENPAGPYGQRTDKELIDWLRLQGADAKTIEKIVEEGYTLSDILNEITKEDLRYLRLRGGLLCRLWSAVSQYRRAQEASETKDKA
Macrophage colony-stimulating factor 1 receptor (Homo sapiens), sequence (P07333 whole entry, the tested form may be a part): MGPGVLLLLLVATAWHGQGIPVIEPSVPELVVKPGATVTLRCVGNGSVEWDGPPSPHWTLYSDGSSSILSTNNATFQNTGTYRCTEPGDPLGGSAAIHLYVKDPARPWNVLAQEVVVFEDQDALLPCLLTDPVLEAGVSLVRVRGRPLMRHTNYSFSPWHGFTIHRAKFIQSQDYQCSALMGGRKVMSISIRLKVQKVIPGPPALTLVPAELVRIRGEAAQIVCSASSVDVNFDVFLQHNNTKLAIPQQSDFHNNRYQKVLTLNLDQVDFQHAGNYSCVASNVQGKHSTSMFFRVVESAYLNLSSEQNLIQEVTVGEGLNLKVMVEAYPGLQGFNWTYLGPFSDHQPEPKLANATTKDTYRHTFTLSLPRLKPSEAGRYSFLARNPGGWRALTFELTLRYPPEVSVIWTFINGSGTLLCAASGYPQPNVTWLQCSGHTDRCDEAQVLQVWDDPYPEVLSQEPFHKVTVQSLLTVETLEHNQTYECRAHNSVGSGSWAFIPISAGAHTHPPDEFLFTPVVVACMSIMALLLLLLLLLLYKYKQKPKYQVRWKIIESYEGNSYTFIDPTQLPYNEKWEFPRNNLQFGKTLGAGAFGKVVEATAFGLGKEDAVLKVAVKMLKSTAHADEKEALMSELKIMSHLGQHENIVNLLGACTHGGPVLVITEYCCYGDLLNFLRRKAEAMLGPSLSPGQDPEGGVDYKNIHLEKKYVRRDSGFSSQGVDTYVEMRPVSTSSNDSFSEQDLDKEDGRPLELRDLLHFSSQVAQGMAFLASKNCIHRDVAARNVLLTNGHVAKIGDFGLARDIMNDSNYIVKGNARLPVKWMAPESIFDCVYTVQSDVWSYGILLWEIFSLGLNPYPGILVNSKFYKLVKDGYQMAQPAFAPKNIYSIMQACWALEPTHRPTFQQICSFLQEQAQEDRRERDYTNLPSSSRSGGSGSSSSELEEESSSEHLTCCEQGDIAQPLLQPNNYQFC
Ephrin type-A receptor 2 (Homo sapiens), sequence (P29317 whole entry, the tested form may be a part): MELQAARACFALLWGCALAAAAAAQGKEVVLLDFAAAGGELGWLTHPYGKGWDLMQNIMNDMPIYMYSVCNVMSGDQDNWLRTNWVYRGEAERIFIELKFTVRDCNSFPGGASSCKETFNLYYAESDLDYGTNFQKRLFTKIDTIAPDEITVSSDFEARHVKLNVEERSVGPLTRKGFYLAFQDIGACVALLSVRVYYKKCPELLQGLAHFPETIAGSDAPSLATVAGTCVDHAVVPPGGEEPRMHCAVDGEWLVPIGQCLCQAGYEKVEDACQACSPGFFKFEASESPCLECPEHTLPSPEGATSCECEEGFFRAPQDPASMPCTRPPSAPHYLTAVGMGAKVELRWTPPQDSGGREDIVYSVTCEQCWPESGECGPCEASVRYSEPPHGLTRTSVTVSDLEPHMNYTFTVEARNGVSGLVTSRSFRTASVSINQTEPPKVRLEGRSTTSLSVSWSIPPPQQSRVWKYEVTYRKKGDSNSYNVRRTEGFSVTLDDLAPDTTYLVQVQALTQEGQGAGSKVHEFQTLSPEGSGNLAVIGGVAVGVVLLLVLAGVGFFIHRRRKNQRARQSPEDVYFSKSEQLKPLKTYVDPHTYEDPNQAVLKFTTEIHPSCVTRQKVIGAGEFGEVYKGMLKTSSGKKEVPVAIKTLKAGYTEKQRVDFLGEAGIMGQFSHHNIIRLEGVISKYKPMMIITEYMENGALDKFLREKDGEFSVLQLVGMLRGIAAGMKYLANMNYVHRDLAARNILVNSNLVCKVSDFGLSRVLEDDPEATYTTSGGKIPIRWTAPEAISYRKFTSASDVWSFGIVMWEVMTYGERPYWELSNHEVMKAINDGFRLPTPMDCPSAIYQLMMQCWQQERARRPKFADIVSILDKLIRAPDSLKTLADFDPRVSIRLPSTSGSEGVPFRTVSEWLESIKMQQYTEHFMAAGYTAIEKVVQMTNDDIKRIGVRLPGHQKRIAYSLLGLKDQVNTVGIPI
Cytoplasmic tyrosine-protein kinase BMX (Homo sapiens), sequence (P51813 whole entry, the tested form may be a part): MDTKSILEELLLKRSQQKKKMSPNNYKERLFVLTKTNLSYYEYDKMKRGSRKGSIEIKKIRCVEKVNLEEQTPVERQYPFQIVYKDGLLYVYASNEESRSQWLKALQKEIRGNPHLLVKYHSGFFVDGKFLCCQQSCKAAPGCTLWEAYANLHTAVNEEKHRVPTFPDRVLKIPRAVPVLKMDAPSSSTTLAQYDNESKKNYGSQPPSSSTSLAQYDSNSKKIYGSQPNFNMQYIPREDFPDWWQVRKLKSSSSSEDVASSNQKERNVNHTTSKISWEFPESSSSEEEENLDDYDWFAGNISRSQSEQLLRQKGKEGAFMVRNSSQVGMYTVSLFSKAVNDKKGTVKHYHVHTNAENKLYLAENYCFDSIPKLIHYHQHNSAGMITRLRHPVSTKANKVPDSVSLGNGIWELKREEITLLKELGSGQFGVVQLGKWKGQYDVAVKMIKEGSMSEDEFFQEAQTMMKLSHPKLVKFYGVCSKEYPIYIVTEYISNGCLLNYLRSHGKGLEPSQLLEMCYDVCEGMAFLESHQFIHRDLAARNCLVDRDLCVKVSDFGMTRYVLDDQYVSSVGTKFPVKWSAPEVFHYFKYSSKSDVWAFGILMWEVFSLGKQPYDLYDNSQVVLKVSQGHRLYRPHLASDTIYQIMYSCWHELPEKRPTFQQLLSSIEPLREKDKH
Tyrosine-protein kinase ZAP-70 (Homo sapiens), sequence (P43403 whole entry, the tested form may be a part): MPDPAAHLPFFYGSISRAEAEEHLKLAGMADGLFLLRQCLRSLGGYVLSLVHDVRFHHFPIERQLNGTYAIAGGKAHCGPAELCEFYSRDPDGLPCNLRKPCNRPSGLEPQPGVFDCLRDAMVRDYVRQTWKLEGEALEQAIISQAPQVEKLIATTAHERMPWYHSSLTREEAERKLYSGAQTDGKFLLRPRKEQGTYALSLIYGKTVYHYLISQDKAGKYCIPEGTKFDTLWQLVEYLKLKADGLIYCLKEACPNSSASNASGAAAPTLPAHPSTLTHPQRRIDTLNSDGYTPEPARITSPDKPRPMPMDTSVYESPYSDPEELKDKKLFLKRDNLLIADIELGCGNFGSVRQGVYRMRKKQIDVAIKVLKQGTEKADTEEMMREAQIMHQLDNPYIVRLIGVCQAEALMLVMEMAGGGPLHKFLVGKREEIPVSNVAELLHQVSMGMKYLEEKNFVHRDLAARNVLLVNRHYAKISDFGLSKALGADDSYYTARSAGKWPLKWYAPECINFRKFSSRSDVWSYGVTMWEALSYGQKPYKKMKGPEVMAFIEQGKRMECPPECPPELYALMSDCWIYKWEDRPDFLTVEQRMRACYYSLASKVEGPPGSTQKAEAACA
Dual specificity mitogen-activated protein kinase kinase 7 (Homo sapiens), sequence (O14733 whole entry, the tested form may be a part, canonical isoform): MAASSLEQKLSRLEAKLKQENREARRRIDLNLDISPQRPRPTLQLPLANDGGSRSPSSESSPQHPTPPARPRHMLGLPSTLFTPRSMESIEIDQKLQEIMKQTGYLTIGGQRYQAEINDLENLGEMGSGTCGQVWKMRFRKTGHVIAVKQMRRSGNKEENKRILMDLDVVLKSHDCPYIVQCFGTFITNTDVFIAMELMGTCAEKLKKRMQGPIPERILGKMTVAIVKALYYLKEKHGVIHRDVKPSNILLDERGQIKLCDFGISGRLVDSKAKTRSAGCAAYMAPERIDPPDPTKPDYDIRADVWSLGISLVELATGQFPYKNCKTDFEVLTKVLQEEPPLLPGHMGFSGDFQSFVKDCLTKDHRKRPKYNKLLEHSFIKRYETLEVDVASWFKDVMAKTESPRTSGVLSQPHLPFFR

SMILES: COc1cc(N2CCC(N3CCN(C)CC3)CC2)ccc1Nc1ncc2c(n1)N(C)c1ccccc1C(=O)N2C
- inhibition [1]: 100%
- inhibition [2]: 47%
- inhibition [3]: 1.2%
- inhibition [4]: 87%
- inhibition [5]: 100%
- inhibition [6]: 100%
- inhibition [7]: 100%
- inhibition [8]: 95%
- inhibition [9]: 84%
- inhibition [10]: 100%
- inhibition [11]: 100%
- inhibition [12]: 100%
- inhibition [13]: 100%
- inhibition [14]: 100%
- inhibition [15]: 62%
- inhibition [16]: 100%
- inhibition [17]: 100%
- inhibition [18]: 62%
- inhibition [19]: 79%
- residual activity [20]: 84%
- residual activity [21]: 83%
- residual activity [22]: 99%
- residual activity [23]: 8.7%
- residual activity [24]: 98%
- residual activity [25]: 76%
- residual activity [26]: 92%
- residual activity [27]: 86%
- residual activity [28]: 69%
- residual activity [29]: 72%

— ChEMBL document CHEMBL5678810
